These results are taken from ChEMBL document CHEMBL3396996, “Catechol-based substrates of chalcone synthase as a scaffold for novel inhibitors of PqsD” (Eur J Med Chem, 2015).

pIC50: −log10 of the molar value. Active and inactive are the calls of the source. The rule behind the calls is not given here.

For experiment [1], the target named is T1, 2-heptyl-4(1H)-quinolone synthase PqsD (Pseudomonas aeruginosa) (UniProt A0A0C7ACN7).
T1 sequence (whole entry): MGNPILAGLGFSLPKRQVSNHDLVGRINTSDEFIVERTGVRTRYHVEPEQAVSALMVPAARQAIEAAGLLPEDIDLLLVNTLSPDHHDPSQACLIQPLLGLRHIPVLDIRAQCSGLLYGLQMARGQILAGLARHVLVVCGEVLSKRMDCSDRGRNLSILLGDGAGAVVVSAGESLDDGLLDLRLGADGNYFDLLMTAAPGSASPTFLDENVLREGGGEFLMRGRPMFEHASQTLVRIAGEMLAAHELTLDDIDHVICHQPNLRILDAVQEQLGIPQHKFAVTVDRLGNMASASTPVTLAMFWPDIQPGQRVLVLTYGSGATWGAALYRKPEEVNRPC
The experiment can be described thus: Inhibition of Pseudomonas aeruginosa recombinant PqsD expressed in Escherichia coli BL21 (lambdaDE3) using ACoA/beta-ketodecanoic acid as substrate at 50 uM after 10 mins.

The test system of experiment [2] is Pseudomonas aeruginosa PA14. As to the kind of experiment: Inhibition of Pseudomonas aeruginosa PA14 PqsH transposon mutant assessed as extracellular level of HHQ at 500 uM after 16 hrs.
For experiment [3], the target named is T2, 2-heptyl-4(1H)-quinolone synthase PqsD (Pseudomonas aeruginosa, UniProt A0A0C7ACN7).
T2 sequence (A0A0C7ACN7 whole entry): T1 sequence (whole entry)
As to the kind of experiment: Inhibition of Pseudomonas aeruginosa recombinant PqsD expressed in Escherichia coli BL21 (lambdaDE3) using ACoA/beta-ketodecanoic acid as substrate after 10 mins.

Experiment [4] concerns the target T1, 2-heptyl-4(1H)-quinolone synthase PqsD (Pseudomonas aeruginosa). As to the kind of experiment: Binding affinity to Pseudomonas aeruginosa recombinant his6-tagged PqsD expressed in Escherichia coli BL21 (lambdaDE3) using AcoA as substrate at 250 to 500 uM incubated for 40 mins prior to compound addition followed by wash out for 30 mins by SPR analysis.
Experiment [5] deals with Pseudomonas aeruginosa PA14. As to the kind of experiment: Inhibition of Pseudomonas aeruginosa PA14 PqsH transposon mutant assessed as extracellular level of HHQ after 16 hrs.
For experiment [6], the system named is Pseudomonas aeruginosa PA14. As to the kind of experiment: Inhibition of Pseudomonas aeruginosa PA14 PqsH transposon mutant assessed as extracellular level of HHQ at 250 uM after 16 hrs.
Experiment [7] addresses T1, 2-heptyl-4(1H)-quinolone synthase PqsD (Pseudomonas aeruginosa). As to the kind of experiment: Binding affinity to Pseudomonas aeruginosa recombinant his6-tagged PqsD expressed in Escherichia coli BL21 (lambdaDE3) at 250 to 500 uM by SPR analysis. For orientation: In SPR one partner is held on a chip, and binding of the other changes the refractive index at the surface.

As for `COC(=O)CCc1ccc([N+](=O)[O-])cc1`, in experiment [1], the inhibition is under 10%. Same read-out and setting: with `COC(=O)CCc1ccc(N)cc1` the figure was under 10%; with `COc1cc(/C=C/C(=O)O)ccc1O`, under 10%.

`O=C(O)/C=C/c1ccc(F)c(F)c1`: in experiment [1], the inhibition came to 18%.

On to `O=C(O)/C=C/c1ccc(O)c(O)c1`, for which the figures for the inhibition in experiment [1] and in experiment [2] were 26% and 10%, respectively. For `COC(=O)/C=C/c1ccc(O)c(O)c1` [METHYLCAFFEATE], the pIC50 in experiment [3] is 4.29. The outcome in experiment [4] was inactive. For the same compound, the Activity in experiment [5] was 31 µM. `O=C(O)/C=C/c1ccsc1`: the results for the inhibition in experiment [1] and in experiment [6] were 12% and under 10%, respectively. As for `COC(=O)CCc1ccc2c(c1)OCO2`, the inhibition in experiment [1] is 37%; in experiment [6], under 10%. Turning to `COC(=O)CCc1ccc(O)c(O)c1`, in experiment [3], the pIC50 is 4.64. Further, the Activity in experiment [5] amounted to 17 µM. Take `COC(=O)/C=C/c1ccc(F)c(F)c1`: the inhibition in experiment [1] and in experiment [6] was under 10% each time. For `O=C(CCc1ccc(O)c(O)c1)OCc1ccccc1`, the pIC50 in experiment [3] is 5.23. In experiment [7], the result was Active. The inhibition in experiment [6] is under 10%. On to `O=C(O)/C=C/c1ccoc1`, for which the inhibition in experiment [1] is 12%. Turning to `COC(=O)/C=C/c1ccc(O)cc1`, the inhibition in experiment [1] is 22%; in experiment [6], under 10%. The result in experiment [4] was inactive. As for `O=C(O)/C=C/c1ccc(O)cc1`, the inhibition in experiment [1] was 30%; in experiment [6] it was under 10%. Consider `CC(C)OC(=O)CCc1ccc(O)c(O)c1`, for which the negative-log IC50 (pIC50) in experiment [3] was 5.07. Moreover, in experiment [7], the outcome was Active. Further, the Activity in experiment [5] was found to be 16 µM. Consider `CNC(=O)CCc1ccc(O)c(O)c1`, for which the negative-log IC50 (pIC50) in experiment [3] is 4.70. In addition, the inhibition in experiment [6] is under 10%. Consider `COC(=O)Cc1ccc(O)c(O)c1`, for which, in experiment [3], the pIC50 is 4.64. In experiment [5], the Activity is 24 µM. Regarding `COC(=O)CCc1ccc(O)cc1`, the inhibition in experiment [1] was under 10%. For the compound `O=C(O)/C=C/c1ccccc1`, the values for the inhibition in experiment [1] and in experiment [6] were 33% and under 10%, respectively.

Turning to `COC(=O)CCc1ccc(C)cc1`, the inhibition in experiment [1] is under 10%. As for `CCOC(=O)CCc1ccc(O)c(O)c1`, the negative-log IC50 (pIC50) in experiment [3] is 4.85. Further, the Activity in experiment [5] is 17 µM.

Consider `O=C(O)/C=C/c1cccc(O)c1`, for which the inhibition in experiment [1] is under 10%. On to `COC(=O)CCCc1ccc(O)c(O)c1`, for which, in experiment [3], the negative logarithm of the IC50 (pIC50) is 5.10. In experiment [7], the result was Active. Further, the Activity in experiment [5] amounted to 18 µM. For `COC(=O)/C=C/c1ccccc1`, the inhibition in experiment [1] was under 10%. Further, in experiment [4], the result was inactive.

Turning to `O=C(O)CCc1ccc(O)c(O)c1` [DIHYDROCAFFEIC ACID], in experiment [3], the pIC50 was 4.57. In addition, the inhibition in experiment [6] is under 10%.

A word on the inhibition: it is how much of the control response was suppressed. The term pIC50 denotes the negative decadic logarithm of the IC50, by convention in mol/L.
